Here are results for one molecule from ChEMBL document CHEMBL4507263, “Data for DCP probe BAY-474” (2021).

Assay [1] deals with Eukaryotic translation initiation factor 2-alpha kinase 1 (Homo sapiens) (UniProt Q9BQI3). The note with it: Compound concentration 1000.0 nM.
Assay [2] concerns the target Serine/threonine-protein kinase 16 (Homo sapiens) (UniProt O75716). Conditions: Compound concentration 1000.0 nM.

Chain of Serine/threonine-protein kinase 16 (Homo sapiens) (O75716 whole entry): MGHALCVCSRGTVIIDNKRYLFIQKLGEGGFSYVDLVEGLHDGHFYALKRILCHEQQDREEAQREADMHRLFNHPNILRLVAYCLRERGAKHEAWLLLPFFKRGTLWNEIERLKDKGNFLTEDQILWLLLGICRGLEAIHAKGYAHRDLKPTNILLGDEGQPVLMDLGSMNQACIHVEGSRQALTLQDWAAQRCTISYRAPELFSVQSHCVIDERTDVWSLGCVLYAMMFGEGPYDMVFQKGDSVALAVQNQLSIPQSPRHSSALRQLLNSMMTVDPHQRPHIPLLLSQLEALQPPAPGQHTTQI
Chain of Eukaryotic translation initiation factor 2-alpha kinase 1 (Homo sapiens) (Q9BQI3 whole entry): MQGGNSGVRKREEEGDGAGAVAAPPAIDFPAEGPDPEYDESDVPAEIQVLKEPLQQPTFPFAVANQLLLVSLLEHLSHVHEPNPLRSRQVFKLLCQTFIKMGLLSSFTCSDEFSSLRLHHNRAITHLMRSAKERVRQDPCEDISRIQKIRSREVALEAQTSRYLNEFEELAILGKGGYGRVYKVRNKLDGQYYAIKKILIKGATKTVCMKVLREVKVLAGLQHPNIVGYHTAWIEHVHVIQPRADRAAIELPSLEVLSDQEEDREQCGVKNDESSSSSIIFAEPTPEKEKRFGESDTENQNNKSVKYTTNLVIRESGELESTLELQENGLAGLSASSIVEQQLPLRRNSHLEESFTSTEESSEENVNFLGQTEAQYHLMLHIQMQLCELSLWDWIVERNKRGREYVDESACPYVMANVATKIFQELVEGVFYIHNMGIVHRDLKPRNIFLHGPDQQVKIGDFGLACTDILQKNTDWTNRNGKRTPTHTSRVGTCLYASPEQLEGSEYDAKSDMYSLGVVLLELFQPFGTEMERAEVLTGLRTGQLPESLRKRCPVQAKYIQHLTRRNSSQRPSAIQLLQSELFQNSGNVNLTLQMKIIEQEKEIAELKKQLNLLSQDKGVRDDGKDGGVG

The term residual activity denotes the share of the control activity or signal that is left under treatment. In the case of `CC1=C(C#N)[C@@H](c2ccc3[nH]nc(C)c3c2)C(C#N)=C(c2ccc(Cl)cc2)N1` [BAY-827], the residual activity in assay [1] and in assay [2] was 100% throughout.
